From patent EP2787958B1, “CHELIDONIUM MAJUS EXTRACTS AND THEIR USE IN THE TREATMENT OF SKIN DISORDERS AND PROMOTION OF SKIN REGENERATION” (priority 2011, dated 2013)
Where two headings read alike, the source gives them in different places.

How the values were obtained:
[1] = test system: interleukin 1β (IL-1β); test: Inflammatory cytokines in cell supernatant (Mosaic ELISA microarray): IL-1β; assay type: cell-based, Human; conditions: 24 hours
[2] = test system: interleukin 6 (IL-6); test: Inflammatory cytokines in cell supernatant (Mosaic ELISA microarray): IL-6; assay type: cell-based, Human; conditions: for IL-6 ng/(ml* No. of cells from photo) ± SD: 24 hours; for IL-6 production (effect in words): 1-10 µM
[3] = test system: HDF cells; test: Summary of uses and toxic effects deduced from the cell assays (Table 1); assay type: cell-based, Human
Summary of the method: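 HDF cells exposed to test substances at a given dosage for 24 h; uses and toxicity inferred from free-radical scavenging, mitochondrial dehydrogenase activity, IL-1β/IL-6 production (basal or induced by 100 µM H2O2), proliferation under standard growth conditions, and senescence-like morphology.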

[4] = test system: HUVEC cells (Human Umbilical Vein Endothelial Cells); test: Mitochondrial dehydrogenase activity (WST-1 formazan assay) in HUVEC cells; assay type: cell-based; conditions: vascular endothelial cells
[5] = test system: collagen produced by HDF cells; test: Quantity of collagen produced by the cells (elution of Sirius Red); conditions: 1-10 µM (1 µM and 10 µM)
[6] = test system: Human keratinocytes (HEK, Human Epidermal Keratinocytes); test: Mitochondrial dehydrogenase activity (WST-1 formazan assay) in HEK cells; assay type: cell-based
[7] = test system: Human dermal fibroblasts (HDF); test: Mitochondrial dehydrogenase activity (WST-1 formazan assay) in HDF cells; conditions: for Revitalizing agent: 24 hours; for activity at 1 µM / activity at 10 µM: Homo sapiens, Fibroblast, read-out: % mitochondrial dehydrogenase activity ± SD
[8] = test system: HDF cells; test: Evaluation of cell proliferation (counting of Sirius Red stained cells in photographs); conditions: 24 hours
[9] = Anti-radical activity (decay of the DPPH radical); assay type: biochemical; conditions: for Anti-radical (skin protective): 24 hours
Summary of the method: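 Test substance in ethanol mixed 1:1 with 200 µM DPPH (stock concentrations), in quadruplicate. Absorbance read at 530 nm after 30 min, with vitamin C and ethanol-only controls. IC50 from variable-slope Hill regression of dose-activity curves.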

[10] = Dose 1 µm (coptisine: 1 pm [sic]), 24 hours
[11] = Dose 1 µm (coptisine: 1 pm [sic])

COc1ccc2cc3[n+](cc2c1OC)CCc1cc2c(cc1-3)OCO2 [berberine]
IL-1β ng/(ml* No. of cells from photo) ± SD ([1]; 1 µM, 34 ng/ml TGF-β1): 138±5 ng/(ml* No. of cells from photo)
IL-1β ng/(ml* No. of cells from photo) ± SD ([1]; 1 µM, 100 µM H2O2): 178±1 ng/(ml* No. of cells from photo)
IL-1β ng/(ml* No. of cells from photo) ± SD ([1]; 1 µM, Standard conditions): 120±6 ng/(ml* No. of cells from photo)
IL-1β ng/(ml* No. of cells from photo) ± SD ([1]; 10 µM, 34 ng/ml TGF-β1): 146±4 ng/(ml* No. of cells from photo)
IL-1β ng/(ml* No. of cells from photo) ± SD ([1]; 10 µM, 100 µM H2O2): 210±16 ng/(ml* No. of cells from photo)
IL-1β ng/(ml* No. of cells from photo) ± SD ([1]; 10 µM, Standard conditions): 94±5 ng/(ml* No. of cells from photo)
IL-6 ng/(ml* No. of cells from photo) ± SD ([2]; 1 µM, 34 ng/ml TGF-β1): 657±5 ng/(ml* No. of cells from photo)
IL-6 ng/(ml* No. of cells from photo) ± SD ([2]; 1 µM, 100 µM H2O2): 1519±155 ng/(ml* No. of cells from photo)
IL-6 ng/(ml* No. of cells from photo) ± SD ([2]; 1 µM, Standard conditions): 843±35 ng/(ml* No. of cells from photo)
IL-6 ng/(ml* No. of cells from photo) ± SD ([2]; 10 µM, 34 ng/ml TGF-β1): 603±21 ng/(ml* No. of cells from photo)
IL-6 ng/(ml* No. of cells from photo) ± SD ([2]; 10 µM, 100 µM H2O2): 1201±84 ng/(ml* No. of cells from photo)
IL-6 ng/(ml* No. of cells from photo) ± SD ([2]; 10 µM, Standard conditions): 618±25 ng/(ml* No. of cells from photo)
IL-6 production (effect in words) ([2]; 34 ng/ml TGF-β1): tendency to reduce the production of IL-6 in a dose-dependent manner
IL-6 production (effect in words) ([2]; 100 µM H2O2): tendency to reduce the production of IL-6 in a dose-dependent manner
IL-6 production (effect in words) ([2]; standard conditions): tendency to reduce the production of IL-6 in a dose-dependent manner
Cytotoxic [3]: No
Irritant [3]: No
Anti-fibrotic (prevention of scar formation, also from acne) [3, 10]: Yes (↓collagen, ↓IL-6)
Cytoprotective (antioxidant, anti-inflammatory and anti-ageing; useful also in the treatment of acne) [3, 10]: Yes* (↓IL-6)
Wound-healing [3, 10]: No
Anti-fibrotic (prevention of scar formation, also from acne) ([3]; Dose 10 µm, 24 hours): Yes (↓collagen, ↓IL-6)
Cytoprotective (antioxidant, anti-inflammatory and anti-ageing; useful also in the treatment of acne) ([3]; Dose 10 µm, 24 hours): Yes* (↓IL-6)
Cytotoxic ([3]; Dose 10 µm, 24 hours): No
Irritant ([3]; Dose 10 µm, 24 hours): No
Wound-healing ([3]; Dose 10 µm, 24 hours): No
concentrations at which no toxic (cytotoxic and irritant) effects are shown ([3]; exposure for 24 hours): less than or equal to 10 µM
mitochondrial dehydrogenase activity (effect in words) ([4]; higher doses): inhibit mitochondrial dehydrogenase activity
mitochondrial dehydrogenase activity (effect in words) ([4]; low doses): stimulate mitochondrial dehydrogenase activity
collagen production (effect in words) ([5]; 34 ng/ml TGF-β1): antagonizes the stimulation of collagen induced by 34 ng/ml TGF-β1
collagen production (effect in words) ([5]; 100 µM H2O2): antagonizes the inhibition of collagen production induced by H2O2
mitochondrial dehydrogenase activity (effect in words) ([6]; higher doses): inhibit mitochondrial dehydrogenase activity
mitochondrial dehydrogenase activity (effect in words) ([6]; low doses): stimulate mitochondrial dehydrogenase activity
mitochondrial dehydrogenase activity (effect in words) ([7]; 1 and 10 µM, 18 h and 42 h, more marked at 42 h): increased with respect to the control
Revitalizing agent [7, 11]: Yes
Revitalizing agent ([7]; Dose 10 µm): Yes
activity at 1 µM ([7]; 18 h): 114 ± 2.98%
activity at 10 µM ([7]; 18 h): 114 ± 10%
activity at 1 µM ([7]; 42 h): 140 ± 8.89%
activity at 10 µM ([7]; 42 h): 132 ± 10.2%
mitochondrial dehydrogenase activity (effect in words) ([7]; fibroblast cells, higher doses): inhibit mitochondrial dehydrogenase activity
mitochondrial dehydrogenase activity (effect in words) ([7]; fibroblast cells, low dosage): stimulate mitochondrial dehydrogenase activity
No. of cells from photo ± SD ([8]; 1 µM, 34 ng/ml TGF-β1): 181±18
No. of cells from photo ± SD ([8]; 1 µM, 100 µM H2O2): 129±24
No. of cells from photo ± SD ([8]; 1 µM, Standard conditions): 203±11
No. of cells from photo ± SD ([8]; 10 µM, 34 ng/ml TGF-β1): 184±28
No. of cells from photo ± SD ([8]; 10 µM, 100 µM H2O2): 119±10
No. of cells from photo ± SD ([8]; 10 µM, Standard conditions): 176±35
% DPPH activity ([9]; 1 mM, 30 minutes): 100%
Anti-radical (skin protective) [9, 11]: No
Anti-radical (skin protective) ([9]; Dose 10 µm): No
